Data set [1] concerns human multiple myeloma NCI-H929 xenograft tumors. Description: In vivo activity of combination therapy with bortezomib or tazemetostat against NCI-H929 transplanted tumor. Details: species or system NOD/SCID mice. The following applies: I-8 3 mg/kg QD; for Average volume (mm^3) (Day 10) / Tumor inhibition rate TGI (%) / Initial volume (mm^3): Bort 1 mg/kg BIW, Taze 100 mg/kg QD, combinations given as + Bort 3 mg/kg BIW / + Taze 3 mg/kg QD; for Initial volume (mm^3): baseline. The method, then: In this example, the human multiple myeloma NCI-H929 cell line was selected as the cell model to determine the inhibitory effects of compounds, bortezomib (Bort), and tazemetostat (Taze), as single drugs and in combination, on the growth of NOD/SCID mouse transplanted tumors of NCI-H929 tumor cells. The evaluation methods and results are described below.
(§1) Human multiple myeloma NCI-H929 cells were routinely cultured in RPMI1640 containing 10% fetal bovine serum at 37°C in a 5% CO2 incubator. After three passages in vitro, when the cells reached over 80% confluence and the required confluence rate, the cells were digested and harvested. After washing with PBS, the cells were counted and the cell concentration was adjusted to approximately 5 × 10^7 cells/mL. The cells were then placed in 4 mL centrifuge tubes on ice for later use.
(§2) Female NOD/SCID mice aged 4-5 weeks were selected and subcutaneously inoculated with NCI-H929 cells ectopically. The mice were held in a lateral position, the forelimb axilla was disinfected with 75% alcohol, and 100 µL of the cell suspension was injected subcutaneously into the axilla using a 1 mL syringe ([…]/100 µL).
After the tumors grew to 90-150 mm^3, the animals were randomly divided into groups, 8 mice in each group, and administered according to different administration methods as follows: • Model control group: Administered with the same volume of Vehicle (DMSO: 0.5% sodium carboxymethyl cellulose: distilled water = 1:1:8) daily by gavage; • Test group 1: administered with I-8 solution at 3 mg/kg (mouse body weight) daily by gavage; • Test group 2: administered with bortezomib (Bort) solution at 1 mg/kg (mouse body weight) twice weekly by gavage; • Test group 3: administered with tazemetostat solution at 100 mg/kg (mouse body weight) daily by gavage; • Test group 4: administered with I-8 at 3 mg/kg (mouse body weight) daily by gavage and bortezomib (Bort) solution at 1 mg/kg (mouse body weight) twice weekly by gavage; • Test group 5: administered with I-8 at 3 mg/kg (mouse body weight) daily by gavage and tazemetostat (Taze) solution at 100 mg/kg (mouse body weight) daily by gavage;
(§3) The route of administration was oral gavage, and the administration frequency was once daily, for 10 consecutive days. The first day of administration was defined as Day 1 of the experiment. Tumor volume changes in mice were measured and recorded every two days. Tumor volume was measured using a vernier caliper, in which the major axis (a) and minor axis (b) of the tumor were measured, and the tumor volume was calculated as tumor volume V (mm^3) = a x b^2/2. After the experiment, the mice were dissected and the tumor weight was measured. The data were entered and statistically analyzed using GraphPad Prism 6 software. The data are expressed as mean ± SEM (Standard Error of Mean), and one-way ANOVA was used. P ≤ 0.05 was considered statistically significant.

The test system is the same in data set [2]. Description: In vivo antitumor activity against NCI-H929 transplanted tumors. More on the design: species or system NOD/SCID mice. The following applies: QD; for Tumor inhibition rate TGI (%) / Average volume (mm^3) (Day 10) / Initial volume (mm^3): oral gavage; for Tumor inhibition rate TGI (%): 10 consecutive days; for Initial volume (mm^3): baseline. The procedure: In this example, the human multiple myeloma NCI-H929 cell line was used as the cell model. The inhibitory effects of compounds on the growth of NOD/SCID mouse transplanted tumors of NCI-H929 tumor cells were determined. The evaluation methods and results are described below.
as §1, §2
After the tumors grew to 90-150 mm^3, the animals were randomly divided into groups, 8 mice in each group, and administered according to different administration methods as follows: • Model control group: Administered with the same volume of Vehicle (DMSO: 0.5% sodium carboxymethyl cellulose: distilled water = 1:1:8) daily by gavage; • Control drug group 1: administered with pomalidomide solution at 10 mg/kg (mouse body weight) daily by gavage; • Control drug group 2: administered with CC-220 solution at 3 mg/kg (mouse body weight) daily by gavage; • Control drug group 3: administered with CC-220 solution at 10 mg/kg (mouse body weight) daily by gavage; • Experimental compound group 4: administered with compound I-4 solution at 3 mg/kg (mouse body weight) daily by gavage; • Experimental compound group 5: administered with compound I-4 solution at 10 mg/kg (mouse body weight) daily by gavage; • Experimental compound group 6: administered with compound I-8 solution at 3 mg/kg (mouse body weight) daily by gavage; • Experimental compound group 7: administered with compound I-8 solution at 10 mg/kg (mouse body weight) daily by gavage;
as §3

Data set [3] shares this test system. Description: In vivo activity in combination with dexamethasone against NCI-H929 transplanted tumor. More on the design: species or system NOD/SCID mice. The conditions noted are these: each drug 3 mg/kg, QD, oral gavage, alone or combined. The procedure: In this example, human multiple myeloma NCI-H929 cell line was selected as the cell model to determine the inhibitory effects of compound and dexamethasone alone, as well as combination thereof on the growth of NOD/SCID mouse transplanted tumors of NCI-H929 tumor cells. The evaluation methods and results are described below.
as §1, §2
After the tumors grew to 90-150 mm^3, the animals were randomly divided into groups, 8 mice in each group, and administered according to different administration methods as follows: • Model control group: Administered with the same volume of Vehicle (DMSO: 0.5% sodium carboxymethyl cellulose: distilled water = 1:1:8) daily by gavage; • Test group 1: administered with dexamethasone (Dex) solution at 3 mg/kg (mouse body weight) daily by gavage; • Test group 2: administered with I-4 solution at 3 mg/kg (mouse body weight) daily by gavage; • Test group 3: administered with I-8 solution at 3 mg/kg (mouse body weight) daily by gavage; • Test group 4: administered with dexamethasone at 3 mg/kg (mouse body weight) and 1-4 solution at 3 mg/kg (mouse body weight) daily by gavage; • Test group 5: administered with dexamethasone at 3 mg/kg (mouse body weight) and I-8 solution at 3 mg/kg (mouse body weight) daily by gavage;
as §3

In the next data set the test system is MV-4-11 cells. Kind of data set: Antiproliferative activity, CCK-8 assay. In kind it is cell-based. The conditions noted are these: Homo sapiens, MV4-11; 144 hours incubation, CCK-8, absorbance at 450 nm. The method, then:
(§4) The cell models used in this example were human hematologic tumor cells, including NCI-H929, RPMI-8226, MV-4-11, U937 and WSU-DLCL-2. Some of the compounds of the present invention were selected to determine their inhibitory activity against the proliferation of NCI-H929, RPMI-8226, MV-4-11, U937, and WSU-DLCL-2 cells.
(§5) • ① The selected compounds were dissolved in DMSO to prepare 10 mM stock solutions. Compounds used within three months should be stored at room temperature in a desiccator; others could be stored at -20°C for long-term storage. • ② The above stock solutions and the positive reference compound pomalidomide were diluted with DMSO. Their initial concentrations were 10 µM. In the experiments of NCI-H929 and RPMI-8226 cells, 3-fold serial dilution with 11 concentration points was performed, with the lowest concentration of 0.00047 µM. The resulting solutions were shaken on a shaker for 5 minutes.
(§6) • ① The NCI-H929, RPMI-8226, MV-4-11, U937, and WSU-DLCL-2 cells in logarithmic growth phase were inoculated in a 96-well plate, 20,000 to 30,000 cells per well, and the plate was pre-cultured for 24 hours in an incubator (at 37°C and 5% CO2). • ② The culture medium in the plate was replaced, and the compounds and the positive control with corresponding concentrations were added to the plated at a volume of 50 µl. • ③ The plate was incubated for 144 hours in an incubator, then 15 µl of CCK-8 solution was added to each well, and incubated in the incubator for another 1-4 hours. • ④ The absorbance at 450 nm was measured using a microplate reader.
(§7) • ① Calculating % Inhibition: [formula] • ② Calculating IC50 value of compound and plotting dose-response curve: The IC50 value was calculated by fitting the % Inhibition and the logarithm of compound concentration to a nonlinear regression (dose response-variable slope) by using GraphPad 6.0. • Y = Bottom + (Top - Bottom) / (1 + 10^((LogIC50 - X) * HillSlope)) • X: log of inhibitor concentration; Y: % Inhibition.
(§8) After calculating % Inhibition, a dose-response curve was plotted with the logarithm of the test compound concentration as the x-axis and the average cell viability as the y-axis, and the IC50 value was obtained by fitting.

Another data set has as its system U937 cells. Kind of data set: Antiproliferative activity, CCK-8 assay. The conditions noted are these: Homo sapiens, U-937; 144 hours incubation, CCK-8, absorbance at 450 nm. The data set is classed as cell-based. The method, then: as §4, §5, §6, §7, §8
The subject of a further data set is WSU-DLCL-2 cells. Description: Antiproliferative activity, CCK-8 assay. The following applies: Homo sapiens, WSUDLCL2; 144 hours incubation, CCK-8, absorbance at 450 nm. In kind it is cell-based. The method, then:
as §4, §5, §6, §7, §8
In general terms: Tetrazolium assays rely on reduction of a dye to a coloured formazan, in cell work by metabolically active cells.

The test system of another data set is NCI-H929 cells. Kind of data set: Antiproliferative activity, CCK-8 assay. In kind it is cell-based. The conditions noted are these: Homo sapiens, 144 hours incubation, CCK-8, absorbance at 450 nm, read-out: IC50 (µM) H-929. The procedure: as §4, §5, §6, §7, §8
A further data set relates to RPMI-8226 cells. Kind of data set: Antiproliferative activity, CCK-8 assay. In kind it is cell-based. The following applies: Homo sapiens, 144 hours incubation, CCK-8, absorbance at 450 nm. The method, then:
as §4, §5, §6, §7, §8

This is an account of results in patent EP4722203A1, “3,4-DIHYDROPHTHALAZIN-1(2H)-ONE DERIVATIVE, AND PREPARATION METHOD THEREFOR AND USE THEREOF” (Academy of Military Medical Sciences, priority 2023, dated 2024).

The IC50 is the concentration that inhibits the measured activity by half.

Each structure is given as a SMILES string.

As for `CC(C)C[C@H](NC(=O)[C@H](Cc1ccccc1)NC(=O)c1cnccn1)B(O)O` [Bort, bortezomib], in data set [1], the “Average volume (mm^3) (Day 10)” value was determined as 1249.7 mm^3, the “Tumor inhibition rate TGI (%)” value was 30.78% and the “Initial volume (mm^3)” value came out at 100.6 mm^3. In addition, the “growth of NCI-H929 transplanted tumors (in words)” value in data set [1] (bortezomib 1 mg/kg BIW, tazemetostat 100 mg/kg QD, alone or combined) is reported as “weaker tumor-inhibiting abilities”.
For `O=C1CC[C@H](N2Cc3c(OCc4ccc(CN5CCOCC5)cc4)cccc3C2=O)C(=O)N1` [CC-220, reference compound], in data set [2] (3 mg/kg), the “Tumor inhibition rate TGI (%)” value worked out at 77.98%, the “Average volume (mm^3) (Day 10)” value came to 643.1 mm^3 and the “Initial volume (mm^3)” value is recorded as 214.6 mm^3. Moreover, in data set [2] (10 mg/kg), the “Tumor inhibition rate TGI (%)” value is on record as 100.09%, the “Average volume (mm^3) (Day 10)” value turned out to be 205.5 mm^3 and the “Initial volume (mm^3)” value came out at 207.2 mm^3. In data set [2] (10 mg/kg, during the experiment, Figure 2B), the body weight entry is “decreasing trend in body weight”.
As to `C[C@@H]1C[C@H]2[C@@H]3CCC4=CC(=O)C=C[C@]4(C)[C@@]3(F)[C@@H](O)C[C@]2(C)[C@@]1(O)C(=O)CO` [Dex, dexamethasone, reference compound], the “Tumor inhibition rate TGI (%)” value in data set [3] (10 consecutive days) is on record as 45.48%. Further, the “Average volume (mm^3) (Day 10)” value in data set [3] (Day 10) was found to be 1048.6 mm^3. Further, in data set [3] (baseline), the “Initial volume (mm^3)” value amounted to 185.7 mm^3.
Take `CN1Cc2c(NCc3ccc(CN4CCOCC4)cc3)cccc2C(=O)N1C1CCC(=O)NC1=O` (stereo not shown) [I-1, 3-(3-methyl-5-((4-(morpholinomethyl)benzyl)amino)-1-oxo-3,4-dihydrophthalazin-2(1H)-yl)piperidin-2,6-dione]: the IC50 was found to be 3.43 µM in the data set on MV-4-11 cells, 1.32 µM in the data set with U937 cells and 0.358 µM with WSU-DLCL-2 cells.
For the compound `CNc1cccc2c1CN(C)N(C1CCC(=O)NC1=O)C2=O` (stereo not shown) [I-2, 3-(3-methyl-5-(methylamino)-1-oxo-3,4-dihydrophthalazin-2(1H)-yl)piperidin-2,6-dione], the IC50 is above 10 µM in the data set on MV-4-11 cells; 0.311 µM in the data set with NCI-H929 cells; 8.31 µM in the data set with RPMI-8226 cells; 1.33 µM in the data set with U937 cells; 1.06 µM in the data set with WSU-DLCL-2 cells.
Take `CN1Cc2c(NCc3ccc(CN4CCN(c5ccccc5)CC4)cc3)cccc2C(=O)N1C1CCC(=O)NC1=O` (stereo not shown) [I-3, 3-(3-methyl-1-oxo-5-((4-((4-phenylpiperazin-1-yl)methyl)benzyl)amino)-3,4-dihydrophthalazin-2(1H)-yl)piperidin-2,6-dione]: the IC50 is 1.39 µM in the data set on MV-4-11 cells, 1.3 µM with NCI-H929 cells, 1.11 µM in the data set on U937 cells and 0.279 µM in the data set with WSU-DLCL-2 cells.
With `CN1Cc2c(NCc3ccc(CN4CCN(C(=O)OC(C)(C)C)CC4)cc3)cccc2C(=O)N1C1CCC(=O)NC1=O` (stereo not shown) [I-5, tert-butyl 4-(4-(((2-(2,6-dioxopiperidin-3-yl)-3-methyl-1-oxo-1,2,3,4-tetrahydrophthalazin-5-yl)amino)methyl)benzyl)piperazin-1-carboxylate], the IC50 in the data set with MV-4-11 cells is 0.174 µM; with NCI-H929 cells, 0.243 µM; with RPMI-8226 cells, 0.641 µM; in the data set on U937 cells, 0.666 µM; in the data set on WSU-DLCL-2 cells, 0.108 µM.
On to `CCN(c1cc(-c2ccc(CN3CCOCC3)cc2)cc(C(=O)NCc2c(C)cc(C)[nH]c2=O)c1C)C1CCOCC1` [Taze, tazemetostat], for which, in data set [1], the “Average volume (mm^3) (Day 10)” value was 1558.0 mm^3, the “Tumor inhibition rate TGI (%)” value amounted to 12.83% and the “Initial volume (mm^3)” value worked out at 110.8 mm^3.
